Assay results taken from PubChem BioAssay (NCI).
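Tested at 5 concentrations; 48 h exposure; 96-well plates; endpoints linearly interpolated, else capped at highest concentration. GI50 marks 50% less growth. Definition used: TGI = concentration required for complete inhibition of growth.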

Experiments:
Assay in all cases: DTP human tumour cell line panel, 48 h
ACHN renal = test system: ACHN renal
DLD-1 colon = test system: DLD-1 colon
EKVX NSCLC = test system: EKVX NSCLC
HOP-62 NSCLC = test system: HOP-62 NSCLC
HOP-92 NSCLC = test system: HOP-92 NSCLC
HT29 colon = test system: HT29 colon
KM20L2 colon = test system: KM20L2 colon
NCI-H522 lung = test system: NCI-H522 lung
SK-MEL-2 melanoma = test system: SK-MEL-2 melanoma
OVCAR-4 ovarian = test system: OVCAR-4 ovarian

| Structure (SMILES) | TGI (ACHN renal) | TGI (DLD-1 colon) | TGI (EKVX NSCLC) | TGI (HOP-62 NSCLC) | TGI (HOP-92 NSCLC) | TGI (HT29 colon) | TGI (KM20L2 colon) | TGI (NCI-H522 lung) | TGI (SK-MEL-2 melanoma) | TGI (OVCAR-4 ovarian) | GI50 (ACHN renal) | GI50 (DLD-1 colon) | GI50 (EKVX NSCLC) | GI50 (HOP-92 NSCLC) | GI50 (HT29 colon) | GI50 (KM20L2 colon) | GI50 (OVCAR-4 ovarian) | GI50 (SK-MEL-2 melanoma) | GI50 (HOP-62 NSCLC) | GI50 (NCI-H522 lung) |
| --- | --- | --- | --- | --- | --- | --- | --- | --- | --- | --- | --- | --- | --- | --- | --- | --- | --- | --- | --- | --- |
| Cc1ccc(S(=O)(=O)NC(=O)NC23CC4CC(CC(F)(C4)C2)C3)cc1 | > 100 µM | > 100 µM | > 100 µM | > 100 µM | > 100 µM | > 100 µM | > 100 µM | > 100 µM | > 100 µM |  |  |  |  |  |  |  |  |  |  |  |
| COC(=O)c1sc(C(=O)OC)c2c1CSC2 | > 100 µM | > 100 µM | > 100 µM | > 100 µM | > 93.6 µM | > 100 µM | > 100 µM | > 100 µM | > 100 µM | > 100 µM |  |  |  |  |  |  |  |  |  |  |
| NC(=O)N/N=C/C(/C=N/NC(N)=O)[N+](=O)[O-] | > 100 µM | > 100 µM | > 100 µM | > 100 µM | > 100 µM | > 100 µM | > 100 µM | > 100 µM | > 100 µM | > 100 µM |  |  |  |  |  |  |  |  |  |  |
| C1CCN(c2nsc(N3CCCCC3)n2)CC1 | > 100 µM | > 100 µM | > 100 µM | > 100 µM | > 100 µM | > 100 µM | > 100 µM | > 100 µM | > 100 µM | > 100 µM |  |  |  |  |  |  |  |  |  |  |
| COc1ccc2c(c1OC)C1=C(C2=O)c2cc3c(cc2CCN1)OCO3 | > 100 µM | > 100 µM | > 100 µM | > 100 µM | > 100 µM | 43.3 µM | 41 µM |  | 66.3 µM | > 100 µM |  |  |  |  |  |  |  |  |  |  |
| O=C1C[C@@H]2C(COC(=O)c3ccccc3)N(OCc3ccccc3)C[C@@H]2O1 (some centres undefined) | > 100 µM | > 100 µM | > 100 µM | > 100 µM |  | > 100 µM | > 100 µM | > 100 µM | > 100 µM | > 100 µM |  |  |  |  |  |  |  |  |  |  |
| COc1cc2noc(-c3ccccc3)c2cc1OC | > 100 µM | > 100 µM |  | > 100 µM | > 100 µM | > 100 µM | > 100 µM | > 100 µM | > 100 µM | > 100 µM |  |  |  |  |  |  |  |  |  |  |
| O=c1cc2ccccc2nn1Cc1ccccc1Cl | > 100 µM | > 100 µM | > 100 µM | > 100 µM | > 100 µM | > 100 µM | > 100 µM |  | > 100 µM | > 100 µM |  |  |  |  |  |  |  |  |  |  |
| Cn1c(=O)nc2n(-c3cccc(F)c3)c3ccccc3nc-2c1=O | 68.2 µM | > 100 µM | 32.5 µM | > 100 µM |  | 32.5 µM | 45.4 µM | 38.1 µM | 52.6 µM | 27.8 µM |  |  |  |  |  |  |  |  |  |  |
| CCNC(=O)C#CC(=O)NCC | > 100 µM | > 64.9 µM | > 100 µM | > 100 µM | > 100 µM | > 100 µM | > 100 µM | > 100 µM | > 100 µM | > 100 µM | > 10 µM | > 10 µM | > 10 µM | > 10 µM | > 10 µM | > 10 µM | > 10 µM | > 10 µM |  |  |
| O=C1C=C(Br)C(=O)C12CCc1ccccc12 (centres undefined) | 24.7 µM | 28.8 µM | 62 µM | 69 µM | 27.3 µM | 45 µM | 64.5 µM | 10.2 µM | 54.2 µM | 52.4 µM |  |  |  |  |  |  |  |  |  |  |
| CN1c2ccccc2N(C)C2C1N(C)c1ccccc1N2C (centres undefined) | > 100 µM | 62.6 µM | > 100 µM | > 100 µM | 52.4 µM | > 100 µM | > 100 µM | 26 µM | 69.6 µM | > 100 µM |  |  |  |  |  |  |  |  |  |  |
| COc1ccc(C(N)=O)cc1N=NN(C)C | > 100 µM | > 100 µM | > 100 µM | > 100 µM | > 100 µM | > 100 µM | > 100 µM | > 100 µM | > 100 µM | > 100 µM |  |  |  |  |  |  |  |  |  |  |
| CC(=O)OCCOCNC(=S)N/N=C(\C)c1cnc2ccccc2n1 | > 100 µM | > 100 µM | > 100 µM | > 100 µM |  | > 100 µM | > 100 µM | 76.7 µM | > 100 µM | > 100 µM |  |  |  |  |  |  |  |  |  |  |
| CN(C)C(N)=NC#N | > 100 µM | > 100 µM | > 100 µM | > 100 µM | > 100 µM | > 100 µM | > 100 µM | > 100 µM | > 100 µM | > 100 µM |  |  |  |  |  |  |  |  |  |  |
| CC1(C)OC(=O)C=C([O-])O1.CC1(C)OC(=O)C=C([O-])O1.O=S(=O)([O-])c1ccc([O-])c2ncccc12.O=S(=O)([O-])c1ccc([O-])c2ncccc12.[Ti+4] | > 100 µM | > 100 µM | > 100 µM | 73.1 µM |  | > 100 µM | > 100 µM | > 100 µM | > 100 µM | > 100 µM | 50.3 µM | > 100 µM | > 100 µM |  | > 100 µM | 43.3 µM | > 100 µM | > 100 µM | 26.3 µM | 52.4 µM |
